# Measurements published in patent US6403616B1, “Chemical process and pharmaceutical formulation” (AstraZeneca AB, priority 1998, dated 2002).
# Test: pKa of omeprazole magnesium
# Assay type: physicochemical
# Source text: Preferably, a suspension of omeprazole magnesium should have a pH of 9.5 or above in a 10% (w/w) suspension of the bulk substance.
smiles,measurement,value
COc1ccc2[n-]c([S+]([O-])Cc3ncc(C)c(OC)c3C)nc2c1.COc1ccc2[n-]c([S+]([O-])Cc3ncc(C)c(OC)c3C)nc2c1.[Mg+2] (stereo not shown) [omeprazole magnesium],pKa,8.8
